Results taken from article PMC6264423, “Phytochemical and Cytotoxic Investigations of Curcuma mangga Rhizomes” (Molecules, 2011).
In brackets after ≈: the same amount, converted by molar mass.

Columns and labels:
[1] = tested on: non-cancer human fibroblast cell line (MRC-5)
Method: (§1) In-vitro neutral red cytotoxicity assay: All cancer cell lines were purchased from the American Type Culture Collection (ATCC, USA), medium like RPMI 1640, McCOY’S 5A, Eagle Minimum Essential Medium (EMEM) from Sigma-Aldrich, USA. The supplements or antibiotics such as foetal bovine serum, penicillin/streptomycin (100 μg/mL), amphotericin B (50 μg/mL), tripsin-EDTA (100X) were purchased from PAA Lab, Austria as well as sodium pyruvate (11 mg/mL) from Sigma-Aldrich, USA. The cells were cultured in a Shel Lab water-jacketed CO2 incubator with 25 cm^3 tissue culture flasks (Nunc, Denmark), which was observed routinely under inverted microscope (Leica DMI3000 B, Germany) for any contamination and seeded into 96-well flat bottom microtiter plate (Nunc, Denmark). The extract or pure compounds were dissolved in dimethyl sulfoxide (DMSO, Molecular Biology Grade, >99.9%) from Sigma-Aldrich, USA. The 96-well microtiter plate was agitated rapidly on a microtiter plate incubator shaker (LT Biomax 500) and absorbance of eluted dye measured at 540 nm using a ELISA microplate reader (EMax microplate reader of Molecular Devices, USA). Cell lines such as MCF-7, A549, Ca Ski and HT-29 were maintained in RPMI 1640 medium, HCT 116 in McCOY’S 5A Medium, KB and MRC-5 cells in Eagle Minimum Essential Medium (EMEM). All of these media were supplemented with 10% foetal bovine serum (FBS), penicillin/streptomycin, amphotericin B and only additional sodium pyruvate in EMEM. The cells were cultured in tissue culture flask in 5% CO2 incubator kept at 37 °C in a humidified atmosphere and observed routinely under inverted microscope from any contaminations. Each fresh medium was replaced every 2 or 3 days until cell confluence was achieved and the cells were detached by using tripsin-EDTA.

lung cell line (A549) = assay: in-vitro neutral red cytotoxicity assay, A549; type: cell-based; conditions: Homo sapiens, mean ± SD of three replicates
Method: as §1

[2] = tested on: hormone-dependent breast cell line (MCF-7); assay: in-vitro neutral red cytotoxicity assay, MCF-7; type: cell-based; conditions: Homo sapiens, MCF7, mean ± SD of three replicates
Method: as §1

[3] = tested on: non-cancer human fibroblast cell line (MRC-5); assay: in-vitro neutral red cytotoxicity assay, MRC-5; conditions: MRC5, read-out: IC50 values, MRC-5
Method: as §1

[4] = tested on: cervical cell line (Ca Ski); assay: in-vitro neutral red cytotoxicity assay, Ca Ski; type: cell-based; conditions: Homo sapiens, mean ± SD of three replicates
Method: as §1

[5] = tested on: colon cell line (HCT 116); assay: in-vitro neutral red cytotoxicity assay, HCT 116; type: cell-based; conditions: Homo sapiens, mean ± SD of three replicates
Method: as §1

[6] = tested on: nasopharyngeal epidermoid cell line (KB); assay: in-vitro neutral red cytotoxicity assay, KB; type: cell-based; conditions: Homo sapiens, mean ± SD of three replicates
Method: as §1

colon cell line (HT-29) = assay: in-vitro neutral red cytotoxicity assay, HT-29; type: cell-based; conditions: Homo sapiens, mean ± SD of three replicates
Method: as §1

[7] = tested on: human cancer cell lines (MCF-7, KB, A549, Ca Ski, HCT 116, HT-29); assay: in-vitro neutral red cytotoxicity assay, panel of six cancer cell lines; type: cell-based
Method: In-vitro neutral red cytotoxicity assay: All cancer cell lines were purchased from the American Type Culture Collection (ATCC, USA), medium like RPMI 1640, McCOY’S 5A, Eagle Minimum Essential Medium (EMEM) from Sigma-Aldrich, USA. The supplements or antibiotics such as foetal bovine serum, penicillin/streptomycin (100 μg/mL), amphotericin B (50 μg/mL), tripsin-EDTA (100X) were purchased from PAA Lab, Austria as well as sodium pyruvate (11 mg/mL) from Sigma-Aldrich, USA. The cells were cultured in a Shel Lab water-jacketed CO2 incubator with 25 cm^3 tissue culture flasks (Nunc, Denmark), which was observed routinely under inverted microscope (Leica DMI3000 B, Germany) for any contamination and seeded into 96-well flat bottom microtiter plate (Nunc, Denmark). The extract or pure compounds were dissolved in dimethyl sulfoxide (DMSO, Molecular Biology Grade, >99.9%) from Sigma-Aldrich, USA. The 96-well microtiter plate was agitated rapidly on a microtiter plate incubator shaker (LT Biomax 500) and absorbance of eluted dye measured at 540 nm using a ELISA microplate reader (EMax microplate reader of Molecular Devices, USA). Cell lines such as MCF-7, A549, Ca Ski and HT-29 were maintained in RPMI 1640 medium, HCT 116 in McCOY’S 5A Medium, KB and MRC-5 cells in Eagle Minimum Essential Medium (EMEM). […]

Molecule | effect on the normal human fibroblast cell line (in words) [1] | IC50 (lung cell line (A549)) | IC50 [2] | IC50 [3] | IC50 [4] | IC50 [5] | IC50 [6] | IC50 (colon cell line (HT-29)) | IC50 ([7]; Homo sapiens, span over the six cancer cell lines, read-out: IC50 values across all tested human cancer cell lines) | cytotoxic activity on the investigated human cancer cell lines (in words) ([7]; all investigated human cancer cell lines)
Ethyl acetate | caused no damage |  |  |  |  |  |  |  |  | 
C=C1CC[C@H]2C(C)(C)CCC[C@]2(C)[C@H]1CC=C(C=O)CC(=O)O (stereo in doubt) [Compound 3, zerumin A] |  | 9.2 ± 0.62 µg/mL (≈ 28.9 µM) | 8.7 ± 0.29 µg/mL (≈ 27.3 µM) | 16.2 ± 0.25 µg/mL (≈ 50.9 µM) | 14.2 ± 0.06 µg/mL (≈ 44.6 µM) | 9.3 ± 0.5 µg/mL (≈ 29.2 µM) | 11.7 ± 1.15 µg/mL (≈ 36.7 µM) | 14.9 ± 0.4 µg/mL (≈ 46.8 µM) |  | 
C=C1CCC2C(C)(C)CCC[C@]2(C)C1C/C=C(/C=O)CC=O (stereo partly shown) [Compound 1, (E)-labda-8(17),12-dien-15,16-dial] |  | 19.9 ± 0.38 µg/mL (≈ 65.8 µM) | 4.3 ± 1.3 µg/mL (≈ 14.2 µM) | 8.9 ± 0.49 µg/mL (≈ 29.4 µM) | 12.1 ± 0.35 µg/mL (≈ 40 µM) | 7.6 ± 0.23 µg/mL (≈ 25.1 µM) | 14.5 ± 0.87 µg/mL (≈ 47.9 µM) | 6.3 ± 0.26 µg/mL (≈ 20.8 µM) |  | 
COc1cccc2c1C(=O)c1c(O)c3c(c(O)c1C2=O)C[C@@](O)(C(=O)CO)C[C@@H]3O[C@H]1C[C@H](N)[C@H](O)[C@H](C)O1 [Doxo *, Doxorubicin, reference compound] |  | 0.58 ± 0.01 µg/mL (≈ 1.07 µM) | 0.05 ± 0.01 µg/mL (≈ 0.092 µM) | 0.4 ± 0.03 µg/mL (≈ 0.736 µM) | 0.18 ± 0.06 µg/mL (≈ 0.331 µM) | 0.24 ± 0.04 µg/mL (≈ 0.442 µM) | 0.27 ± 0.01 µg/mL (≈ 0.497 µM) | 0.33 ± 0.03 µg/mL (≈ 0.607 µM) | 0.05 to 0.58 µg/mL (≈ 0.092 to 1.07 µM) | 
C=C1CCC2C(C)(C)CCC[C@]2(C)C1/C=C/C(C)=O (stereo partly shown) [Compound 2, (E)-15,16-bisnorlabda-8(17),11-dien-13-one] |  | > 100 µg/mL | > 100 µg/mL | > 100 µg/mL | > 100 µg/mL | > 100 µg/mL | > 100 µg/mL | > 100 µg/mL |  | no cytotoxic activity
